Reference: patent publication US10245240B2, “Treatment of prostate carcinoma” (Pellficure Pharmaceuticals, Inc., priority 2010, dated 2019)

Legend:
prostate carcinoma cells = conditions: 5 umol/L; cited from earlier work
[1] = test system: LNCaP hormone-sensitive human prostate cancer cells; assay: Dose response plumbagin in human LNCaP cells, cell counting in absence of DHT; assay type: cell-based; conditions: no DHT; for % control / cell number/20 mean / cell number/20 trial 1 / cell number/20 trial 2 / cell number/20 trial 3 / cell number/20 trial 4: 24 hours
Protocol: LNCaP hormone-sensitive human prostate cancer cells were placed in androgen withdrawal medium in the absence of DHT (dihydrotestosterone). The absence of DHT simulates surgical or chemical castration. The androgen withdrawal medium was phenol-red free DMEM high-glucose containing 10% charcoal-treated Fetal Bovine Serum.
Plumbagin was added at the indicated concentrations in Table 6 for 24 hours. Cells were trypsinized and counted using a Cell Coulter counter Multisizer II, which excludes debris. The results in Table 6 represent cell numbers as percent of control (in which the number of cells in the absence of drug is 100%). FIG. 8 illustrates the effect of plumbagin in human LNCaP cells.

PTEN-P2/GFP tumor = assay: In vivo effect of plumbagin added two weeks after castration, pseudo-orthotopic chamber model (Example 6); design: species or system nude mice; conditions: daily plumbagin ip 2 mg/kg, from two weeks after castration
Protocol: Intravital microscopy: Fluorescence microscopy is performed using a Mikron Instrument Microscope equipped with epi-illuminator and video-triggered stroboscopic illumination from a xenon arc (MV-7600, EG&G). A silicon intensified target camera (SIT68, Dage-MTI) is attached to the microscope. A Hamamatsu image processor (Argus 20) with firmware version 2.50 (Hamamatsu Photonic System) is used for image enhancement and for the capture of images to a computer. A Zeiss Plan Neofluar 1.25×/0.035 objective is used to obtain an over-view of the chamber and to determine tumor size. A Zeiss A-Plan 10×/0.25 objective is used to capture images for calculation of vascular parameters. A Zeiss Achroplan 20×/0.5 W objective is used to capture images for calculation of mitotic and apoptotic indices. Our system permits evaluation of the following parameters.
Mitotic and Apoptotic Indices: At each time point, two peripheral and two central ×20 fields of the tumor are captured with a FITC filter and an integrated frame grabber. Only mitotic figures in metaphase-telophase (MI) are included in the mitotic indices to exclude the potential artifact of nuclear membrane distortion. Apoptotic/Pyknotic nuclei are defined as H2B-GFP labeled nuclei with a cross sectional area <30 μm^2. Nuclear karyorrhexis (NK), easily distinguishable by the vesicular nuclear condensation and brightness of H2B-GFP, is included within this apoptotic indices.
Platinum chambers were placed in the dorsal skinfold of nude mice by surgery. Two days later, minced prostate tissue from BalbC mice (syngeneic) was grafted into the chambers and allowed to vascularize for 7 to 10 days. Small tumor cells spheroids were implanted into each chamber. Tumor cells PTEN-P2 stably transfected with H2B-GFP fusion protein (PTEN-P2/GFP) were used in these experiments. The animals were surgically castrated about three weeks after implantation to inhibit androgen production. Surgical castration induces androgen deprivation, and is known in the art to effectively mimic clinical hormone therapy. Two weeks after castration, the mice were treated daily with plumbagin at 2 mg/kg ip.

[2] = test system: P388 lymphocytic leukemia; conditions: cited from earlier work

For `CC1=CC(=O)c2c(O)cccc2C1=O` [Plumbagin, 5-hydroxy-2-methylnaphthalene-1,4-dione], the “expression of PKCq, PI3K, AKT, activation of AP-1, NF-κB, Stat3” value (prostate carcinoma cells) is listed as “inhibit expression of multiple molecular targets”, the “% control” value ([1]; 0.5 μM plumbagin) is listed as 84.13% and the “cell number/20 mean” value ([1]; 0.5 μM plumbagin) is listed as 6335. For the same molecule, the “cell number/20 trial 1” value ([1]; 0.5 μM plumbagin) was 6422, the “cell number/20 trial 2” value ([1]; 0.5 μM plumbagin) was 5989 and the “cell number/20 trial 3” value ([1]; 0.5 μM plumbagin) was 6453. For the same molecule, the “cell number/20 trial 4” value ([1]; 0.5 μM plumbagin) was 6475, the “% control” value ([1]; 1 μM plumbagin) was 90.95% and the “cell number/20 mean” value ([1]; 1 μM plumbagin) was 6849. For the same molecule, the “cell number/20 trial 1” value ([1]; 1 μM plumbagin) was 6997, the “cell number/20 trial 2” value ([1]; 1 μM plumbagin) was 7139 and the “cell number/20 trial 3” value ([1]; 1 μM plumbagin) was 6769. The “cell number/20 trial 4” value ([1]; 1 μM plumbagin) was 6490, the “% control” value ([1]; 2 μM plumbagin) was 66.23% and the “cell number/20 mean” value ([1]; 2 μM plumbagin) was 4987. For the same molecule, the “cell number/20 trial 1” value ([1]; 2 μM plumbagin) was 5324, the “cell number/20 trial 2” value ([1]; 2 μM plumbagin) was 5282 and the “cell number/20 trial 3” value ([1]; 2 μM plumbagin) was 4522. For the same molecule, the “cell number/20 trial 4” value ([1]; 2 μM plumbagin) was 4821, the “% control” value ([1]; 4 μM plumbagin) was 42.21% and the “cell number/20 mean” value ([1]; 4 μM plumbagin) was 3179. The “cell number/20 trial 1” value ([1]; 4 μM plumbagin) was 3005, the “cell number/20 trial 2” value ([1]; 4 μM plumbagin) was 3082 and the “cell number/20 trial 3” value ([1]; 4 μM plumbagin) was 3327. For the same molecule, the “cell number/20 trial 4” value ([1]; 4 μM plumbagin) was 3300, the “% control” value ([1]; 6 μM plumbagin) was 18.50% and the “cell number/20 mean” value ([1]; 6 μM plumbagin) was 1393. For the same molecule, the “cell number/20 trial 1” value ([1]; 6 μM plumbagin) was 1396, the “cell number/20 trial 2” value ([1]; 6 μM plumbagin) was 1500 and the “cell number/20 trial 3” value ([1]; 6 μM plumbagin) was 1323. For the same molecule, the “cell number/20 trial 4” value ([1]; 6 μM plumbagin) was 1352, the “% control” value ([1]; 8 μM plumbagin) was 3.93% and the “cell number/20 mean” value ([1]; 8 μM plumbagin) was 296. The “cell number/20 trial 1” value ([1]; 8 μM plumbagin) was 330, the “cell number/20 trial 2” value ([1]; 8 μM plumbagin) was 283 and the “cell number/20 trial 3” value ([1]; 8 μM plumbagin) was 284. The “cell number/20 trial 4” value ([1]; 8 μM plumbagin) was 287, the “efficiency of plumbagin with simulated castration versus castration alone” value ([1]; in vitro, LNCaP cells) was “more efficient than treatment castration alone” and the “apoptosis (AP) in tumor” value (PTEN-P2/GFP tumor) was “increasing apoptosis”. For the same molecule, the “efficiency of combination of plumbagin with castration versus castration alone” value (PTEN-P2/GFP tumor) was “more efficient in vivo than castration alone”, the “mitosis (MI) in tumor” value (PTEN-P2/GFP tumor) was “mitosis increased” and the “tumor size, castration with plumbagin” value (PTEN-P2/GFP tumor) was “significant decreases in tumor size”. The ED50 [2] was 4 mg/kg body weight.
